The source of these data is patent publication US20050164234A1, “Methods of using mammalian RNase H and compositions thereof” (priority 1997, published 2005).

The test system of experiment [1] is 17 nucleotide long RNA/DNA heteroduplex. The experiment can be described thus: Initial cleavage rates of RNA/DNA heteroduplex by wild-type and mutant human RNase H1 proteins. The format is biochemical. To be noted: 0.5 ng enzyme, 37° C., average of n≧3; detection limit = <1% of heteroduplex substrate cleaved over 60 min. An excerpt:
The oligoribonucleotides were synthesized on a PE-ABI 380B synthesizer using 5′-O-silyl-2′-O-bis(2-acetoxyethoxy)methyl ribonucleoside phosphoramidites and procedures described elsewhere. Scaringe et al., 1998, J. Am. Chem. Soc. 120, 11820-11821/The oligoribonucleotides were purified by reverse-phase HPLC. The DNA oligonucleotides were synthesized on a PE-ABI 380B automated DNA synthesizer and standard phosphoramidite chemistry. The DNA oligonucleotides were purified by precipitation 2 times out of 0.5 M NaCl with 2.5 volumes of ethyl alcohol.
The RNA substrate is 5′-end-labeled with ^32P using 20 u of T4 polynucleotide kinase (Promega, Wis.), 120 pmol (7000 Ci/mmol) [γ-^32P]ATP (ICN, CA), 40 pmol RNA, 70 mM tris, pH 7.6, 10 mM MgCl2 and 50 mM DTT. The kinase reaction is incubated at 37° C. for 30 min. The labeled oligoribonucleotide was purified by electrophoresis on a 12% denaturing polyacrylamide gel. The specific activity of the labeled oligonucleotide is approximately 3000 to 8000 cpm/fmol.
The heteroduplex substrate was prepared in 100 μL containing 50 nM unlabeled oligoribonucleotide, 10^5 cpm of ^32P labeled oligoribonucleotide, 100 nM complementary oligodeoxynucleotide and hybridization buffer [20 mM tris, pH 7.5, 20 mM KCl]. Reactions were heated at 90° C. for 5 min, cooled to 37° C. and 60 u of Prime RNase Inhibitor (5 Prime→3 Prime, CO) and MgCl2 at a final concentration of 1 mM were added. Hybridization reactions were incubated 2-16 h at 37° C. and β-mercaptoethanol (BME) was added at final concentration of 20 mM.
The heteroduplex substrate was digested with 0.5 ng human RNase H1 at 37° C. A 10 μl aliquot of the cleavage reaction was removed at time points ranging from 2-120 min and quenched by adding 5 μL of stop solution (8 M urea and 120 mM EDTA). The aliquots were heated at 90° C. for two min, resolved in a 12% denaturing polyacrylamide gel and the substrate and product bands were quantitated on a Molecular Dynamics PhosphorImager. The concentration of the converted product was plotted as a function of time. The initial cleavage rate was obtained from the slope (mole RNA cleaved/min) of the best-fit line for the linear portion of the plot, which comprises, in general <10% of the total reaction and data from at least five time points.
The initial cleavage rates (V0) were determined for the human RNase H1 enzyme and the mutant proteins using a 17 nucleotide long RNA/DNA heteroduplex, (Table 5).
Initial cleavage rates were determined as described in above. The initial cleavage rates are an average of n≧3 measurements. *Detection limit=cleavage rates resulting in <1% of the heteroduplex substrate over 60 min.

For experiment [2], the target named is DNA/2′F heteroduplex. Nature of the experiment: Binding affinity of RNase H1 proteins by inhibition analysis with noncleavable heteroduplex. On the procedure:
Binding affinities were determined by inhibition analysis. Lima and Crooke, 1997, Biochemistry 36, 390-398. The RNA-DNA heteroduplex was prepared as described above except in a final volume of 60 μL and with the concentration of the heteroduplex ranging from 10 nM to 500 nM. The non-cleavable heteroduplex substrate was prepared in 60 μL of hybridization buffer containing equimolar concentrations of oligodeoxynucleotide and complementary 2′-fluoro modified oligonucleotide in excess of the RNA-DNA hybrid. The DNA-2′-fluoro duplex was added to the RNA-DNA duplex and the combined reaction was digested with human RNase H1 as described for the determination of initial rates. The reactions were quenched, analyzed and quantitated as described for the determination of initial rates.
The binding affinities of human RNase H1 and the RNase H1[ΔI-II] mutant were determined indirectly using a competition assay as previously described. Lima and Crooke, 1997, Biochemistry 36, 390-398. Briefly, the cleavage rate of the RNA/DNA heteroduplex was determined at a variety of substrate concentrations in both the presence and absence competing noncleavable DNA/2′F heteroduplex.

The test system of a further experiment is RNA/DNA substrate. The experiment can be described thus: RNase H activity assay of renatured recombinant human RNase H1. The format is biochemical. Particulars: 10 ng purified renatured enzyme, 2 hours.
Experiment [3] has as its target DNA/2′F heteroduplex. Particulars: derived from previously reported data, Lima and Crooke (1997); cited from earlier work.

Like-named read-outs stand apart in the source and are kept apart here.

As to “Wild-type RNase H1: cloned and expressed human RNase H1, 286 amino acids, his-tag fusion protein; SEQ ID NO: 1”, the V0 in experiment [1] amounted to 658 ± 130 pM/min. At DNA/2′F heteroduplex [2] (for DNA/2′F heteroduplex, from ≧2 slopes of Lineweaver-Burk analysis), this molecule had a Kd of 75 nM. The “binding affinity for heteroduplex substrate tighter than RNase H1[ΔI-II] mutant” value in the experiment with DNA/2′F heteroduplex [2] (wild-type versus ΔI-II) is reported as below 2 fold. Also, the “cleavage of the substrate” value in the experiment with RNA/DNA substrate turned out to be 40%.

B1: E. coli RNase H1: E. coli RNase H1 enzyme, 155 amino acids, literature comparator (protein)
chain: MLKQVEIFTDGSCLGNPGPGGYGAILRYRGREKTFSAGYTRTTNNRMELMAAIVALEALKEHCEVILSTDSQYVRQGITQWIHNWKKRGWKTADKKPVKNVDLWQRLDAALGQHQIKWEWVKGHAGHPENERCDELARAAAMNPTLEDTGYQVEV
Regarding B1, the Kd on DNA/2′F heteroduplex [3] is 1600 nM.
